Assays:
[1] = Absorption and emission spectra of copolymers F1-F3 and fluorophores D1-D3; type: physicochemical
From the text: The target dye-loaded copolymers F1-F3 were then subject to investigations of their spectroscopic properties in both organic solvents and aqueous solution. […] Attaching to the 120-kDa amphiphilic copolymer drastically enhances the water solubility of BODIPY D1 and chlorin D2 without strong perturbation on the spectroscopic properties. Emission band for F1 and F2 in water remains the same as the ones measured in organic solutions, showing minimal dye-dye interaction is involved in aqueous solution of F1 and F2 at μM concentration. […] This negative result may be because of the inappropriate size of the copolymer backbone. Polymer larger in size may be required to encapsulate large hydrophobic fluorophores like the phthalocyanine D3.
All chemicals obtained commercially were used as received unless otherwise noted. Reagent-grade solvents (CH2Cl2, THF, methanol) and HPLC-grade water were used as received. NMR data was measured in a solution of CDCl3 unless otherwise noted. Noncommercial compounds 1, 2, and 4 were prepared following literature procedures. […] Samples were detected with Agilent 1260 infinity refractive index detector. Absorption spectra were measured on Agilent 8453 and Shimadzu UV1800 instruments using dilute (μmolar) solutions of the compound in UV transparent (e.g., quartz) cuvettes versus a solvent blank at room temperature.

[2] = Fluorescence quantum yield of F1-F3 and D1-D3; type: physicochemical
From the text: […] […] These comparisons indicate the absence of dye-dye quenching resulting from the aggregation for F1 and F2 in μM aqueous solutions. […] Also, a smaller phthalocyanine skeleton (e.g. with methyl instead of heptyl as peripheral groups) may be encapsulated with the current length of copolymer successfully.

Row | Compound | absorption wavelength [1] [nm] | Φf (fluorescence quantum yield) ([2]; CH2Cl2) | Φf (fluorescence quantum yield) ([2]; Toluene)
1 | Cc1cc(C)c(-c2c3nc(c(-c4ccc(C(=O)NN)cc4)c4ccc(cc5nc(cc6ccc2[nH]6)CC5(C)C)[nH]4)C=C3)c(C)c1 [Compound D2, 5-[4-(N-Aminocarbamoyl)phenyl]-10-Mesityl-18,18-dimethylchlorin] | 640 | 0.19 | 
2 | CCCCCCCc1cc2c(cc1CCCCCCC)-c1nc-2nc2[nH]c(nc3nc(nc4[nH]c(n1)c1cc(CCCCCCC)c(CCCCCCC)cc41)-c1cc(C#Cc4ccc(CC(=O)NN)cc4)ccc1-3)c1cc(CCCCCCC)c(CCCCCCC)cc21 [Compound D3, 2-[4-(N-Aminocarbamoyl)methylphenylethynyl]-9,10,16,17,23,24-hexaheptylphthalocyanine] | 700 |  | 0.68

— US12139617B2, “Polymeric fluorophores, compositions comprising the same, and methods of preparing and using the same” (North Carolina State University, priority 2017, dated 2024)
